Laboratory results taken from patent publication US20210023012A1, “Solid Pharmaceutical Compositions for Treating HCV” (AbbVie Inc., priority 2019, published 2021).

Biological target: T1, BCRP (Homo sapiens, UniProt Q9UNQ0)
T1 sequence (Q9UNQ0 1-655): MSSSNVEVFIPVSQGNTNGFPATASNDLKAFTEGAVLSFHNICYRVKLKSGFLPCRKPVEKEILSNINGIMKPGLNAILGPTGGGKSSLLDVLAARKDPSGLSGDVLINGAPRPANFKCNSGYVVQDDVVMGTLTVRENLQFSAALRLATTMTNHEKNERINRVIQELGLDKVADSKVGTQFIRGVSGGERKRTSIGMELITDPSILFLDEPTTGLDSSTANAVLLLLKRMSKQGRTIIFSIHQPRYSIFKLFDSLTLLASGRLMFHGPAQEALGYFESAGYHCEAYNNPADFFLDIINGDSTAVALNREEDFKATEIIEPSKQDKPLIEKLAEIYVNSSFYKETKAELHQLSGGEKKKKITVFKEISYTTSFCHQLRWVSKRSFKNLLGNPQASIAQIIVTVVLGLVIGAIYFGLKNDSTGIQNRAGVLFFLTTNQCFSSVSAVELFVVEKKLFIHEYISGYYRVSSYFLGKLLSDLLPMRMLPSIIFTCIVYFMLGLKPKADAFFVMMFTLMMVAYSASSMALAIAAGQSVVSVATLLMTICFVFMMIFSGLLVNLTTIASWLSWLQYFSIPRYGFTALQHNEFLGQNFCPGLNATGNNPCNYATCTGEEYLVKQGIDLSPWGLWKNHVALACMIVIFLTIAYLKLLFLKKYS
Assay: Substrate of transporter BCRP
Format: in vitro ADME

**Q.** Which Substrate of transporter does the source give for `COC(=O)N[C@H](C(=O)N1CCC[C@H]1c1nc2cc([C@H]3CC[C@H](c4cc5nc([C@@H]6CCCN6C(=O)[C@@H](NC(=O)OC)[C@@H](C)OC)[nH]c5cc4F)N3c3cc(F)c(N4CCC(c5ccc(F)cc5)CC4)c(F)c3)c(F)cc2[nH]1)[C@@H](C)OC` [Compound 2] here?
**A.** The Substrate of transporter was “not excluded”.
